What was measured:
[1] = tested on: human platelets in rabbit blood circulation; assay: In vivo platelets viability analysis in a rabbit model
Protocol: Female New Zealand white rabbits (2.5-3 kg) were infused with Ethyl Palmytate (EP) to inhibit the Macrophages function (Blajchman M A and Lee D H, “The thrombocytopenic rabbit bleeding time model to evaluate the in vivo hemostatic efficacy of platelets and platelet substitutes”, Transfus Med Rev 1997, 11:95-105). EP solution (10 ml) was prepared by mixing (up to homogeneity) of 2.25 ml EP with 7.75 ml of 5% dextrose containing 1% Tween-20.
[…] Blood samples at time intervals were analyzed by flow cytometry with FITC labeled anti-CD42a for the presence of human platelets (Rothwell S W, Maglasang P et al., “Survival of fresh human platelets in a rabbit model as traced by flow cytometry”, Transfusion 1998, 38:550-556; Leytin V, Allen D J et al., “A rabbit model for monitoring in vivo viability of human platelet concentrates using flow cytometry”, Transfusion 2002, 42:711-718). 100% represented the total number of normalized human platelet in rabbit circulation after 30 min from the injection.

platelets [2] = assay: Analysis of phosphatidylserine (PS) exposure by FACS (AnnexinV-FITC); type: cell-based, human
Protocol: PS exposure was measured by FACS analysis of bound AnnexinV-FITC using 488 nm for excitation and 530 nm for emission. (Shapira S, Friedman Z et al., “The effect of storage on the expression of platelet membrane phosphatidylserine and the subsequent impact on the coagulant function of stored platelets”, Transfusion 2000, 40:1257-1263)

platelets [3] = assay: ATP quantitation in stored platelets (luminometric ATP bioluminescence kit); type: cell-based, human
Protocol: PC fractions were identically prepared from CO pretreated or untreated blood by consecutive centrifugation in a sterile environment using blood bank conditions. Bicarbonate (4% of PC volume) was then added from a stock solution of 750 mM with agitation to yield a final bicarbonate concentration of 30 mM. Next, the PC was treated with CO in a similar manner to whole blood. Alternatively, rather than applying a vacuum, the containers were flushed for 10 min. with sterile CO while agitating the containers, which were then sealed. The containers were allowed to stay at room temperature of 20-24 degree C.° PRP platelets were treated similarly.
A luminometric ATP was measured by Veritas™ Microplate Luminometer (Tuner Biosystems) by using an ATP bioluminescence kit (CLS II) from Roche (cat No. 11 699 709 001) Mannheim Germany The assay was performed according to the manufacturer's instructions. Briefly: 50 μl of cell lysate (500000 cell per sample) or ATP standard concentration was added in advance to each well in 96 well LIA-white plate (Greiner bio one). Automatic injection of 50 μof substrate solution (luciferin and luciferase) was added to each well by the device and the luminescence was measured. ATP concentrations were calculated based on an ATP standard curve. Each sample was tested in triplicate.

SMILES: [C-]#[O+] [COatm, carbon monoxide]
- time dependent survival of stored human platelets in rabbit blood circulation ([1]; 7 days stored, COatm vs air-stored (FIG. 5)): survive longer in vivo than air-stored platelets
- survival of stored platelets in rabbit blood circulation ([1]; Plt preserved for 9 days, COatm vs air (FIG. 5)): survived for longer in blood circulation
- PS exposure after transfer to air (platelets [2]; 9 days COatm-stored, then re-aerated (FIG. 6d)): another fraction returned to very low PS exposure
- PS exposure, change during extended storage (platelets [2]; extended storage under COatm up to 9 days): no further changes
- PS exposure (platelets [2]; several hours of storage under COatm (FIG. 6b)): most cells are PS-exposed
- ATP level relative to the initial value of the ATP of air preserved platelets (platelets [3]; 5 days COatm storage, then overnight re-aeration): 74%
- ATP level relative to the level in fresh PC (platelets [3]; platelets stored as PC 5 days under anaerobic COatm): 28%

Reference: US20200337297A1, “SYSTEM AND METHOD FOR CARBON MONOXIDE […] BLOOD COMPONENTS” (SAFETIN LTD., priority 2017, published 2020)
